Paper PMC9950073, “Alleviation of arthritis through prevention of neutrophil extracellular traps by an orally available inhibitor of protein arginine deiminase 4” (Scientific Reports, 2023)

Test system: collagen induced arthritis
Test: Collagen induced arthritis model in DBA/1 mice
Type: in vivo
Settings: Dexamethasone dose not given; for clinical score: JBI-589 50 mg/kg po BID day 0-45; for clinical score / bone erosion (histopathology) / joint inflammation (histopathology) / pannus formation (histopathology): Etanercept 25 mg/kg IP day 31–45

| spleen weight (day 45, JBI-589 50 mg/kg po BID) | Molecule | clinical score | bone erosion (histopathology) (JBI-589 50 mg/kg po BID) | joint inflammation (histopathology) (JBI-589 50 mg/kg po BID) | pannus formation (histopathology) (JBI-589 50 mg/kg po BID) | body weight (end of study, JBI-589 50 mg/kg po BID) |
| --- | --- | --- | --- | --- | --- | --- |
| stronger reduction | C[C@@H]1C[C@H]2[C@@H]3CCC4=CC(=O)C=C[C@]4(C)[C@@]3(F)[C@@H](O)C[C@]2(C)[C@@]1(O)C(=O)CO [Dexamethasone] | strong inhibition | significantly decreased | significantly decreased | significantly decreased | stronger reduction |
| – | Etanercept | comparable inhibition | no appreciable effect | no appreciable effect | no appreciable effect | – |
